System: LXRα and/or LXRβ
Test: LXR/LXRE co-transfection assay (luciferase reporter, CV-1 cells)
Format: cell-based, human
Details: IC50 or EC50 for LXR (LXRα and/or LXRβ, not distinguished), tested as described in Example 109, CV-1 cells
Summary of the method: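 Luciferase readout after 20 h compound exposure at 37 °C in CV-1 cells transiently expressing human LXRα or LXRβ with RXRα and an LXRE-driven reporter. Dose-response over 8 points at ½-log spacing, 4 wells each, fitted for EC50/IC50; values average ≥3 independent experiments, efficacy as % of high control.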

| SMILES | EC50 [nM] |
| --- | --- |
| COc1ncc(-c2ccc(-c3cc(C(C)(C)O)nn3-c3ccccc3Cl)cc2)cn1 [Example 1291, 2-[1-(2-chlorophenyl)-5-{4-[2-(methyloxy)pyrimidin-5-yl]phenyl}-1H-pyrazol-3-yl]propan-2-ol] | 1000 to 10000 |
| CC(C)NC(=O)c1cccc(-c2ccc(-c3cc(C(C)(C)O)nn3-c3ccccc3Cl)cc2)c1 [Example 1292, 4′-[1-(2-chlorophenyl)-3-(1-hydroxy-1-methylethyl)-1H-pyrazol-5-yl]-N-(1-methylethyl)biphenyl-3-carboxamide] | 1000 to 10000 |
| CN(C)CCNC(=O)c1cccc(-c2ccc(-c3cc(C(C)(C)O)nn3-c3ccccc3Cl)cc2)c1 [Example 1293, 4′-[1-(2-chlorophenyl)-3-(1-hydroxy-methylethyl)-1H-pyrazol-5-yl]-N-[2-(dimethylamino)ethyl]biphenyl-3-carboxamide] | 1000 to 10000 |
| CC(C)(O)c1nn(-c2ccccc2Cl)c(-c2ccc(-c3cccc(S(C)(=O)=O)c3)s2)c1Cl [Example 1294, 2-[4-chloro-1-(2-chlorophenyl)-5-{5-[3-(methylsulfonyl)phenyl]-2-thienyl}-1H-pyrazol-3-yl]propan-2-ol] | < 1000 |
| CC(C)NC(=O)Oc1cccc(-c2ccc(-c3cc(C(C)(C)O)nn3-c3ccccc3Cl)cc2)c1 [Example 1296, 4′-[1-(2-chlorophenyl)-3-(1-hydroxy-1-methylethyl)-1H-pyrazol-5-yl]biphenyl-3-yl (1-methylethyl)carbamate] | 1000 to 10000 |
| CCOC(=O)COc1cccc(-c2ccc(-c3cc(C(C)(C)O)nn3-c3ccccc3Cl)cc2)c1 [Example 1297, ethyl ({4′-[1-(2-chlorophenyl)-3-(1-hydroxy-1-methylethyl)-1H-pyrazol-5-yl]biphenyl-3-yl}oxy)acetate] | 1000 to 10000 |
| CCN(CC)C(=O)COc1cccc(-c2ccc(-c3cc(C(C)(C)O)nn3-c3ccccc3Cl)cc2)c1 [Example 1298, 2-({4′-[1-(2-chlorophenyl)-3-(1-hydroxy-1-methylethyl)-1H-pyrazol-5-yl]biphenyl-3-yl}oxy)-N,N-diethylacetamide] | 1000 to 10000 |
| CC(C)(O)c1cc(-c2ccc(-c3ccc(F)c(C(F)(F)F)c3)cc2)n(-c2ccccc2Cl)n1 [Example 1299, 2-{1-(2-chlorophenyl)-5-[4′-fluoro-3′-(trifluoromethyl)biphenyl-4-yl]-1H-pyrazol-3-yl}propan-2-ol] | 1000 to 10000 |
| CC(C)(O)c1cc(-c2ccc(-c3cccc(S(N)(=O)=O)c3)cc2)n(-c2ccccc2Cl)n1 [Example 1300, 4′-[1-(2-chlorophenyl)-3-(1-hydroxy-1-methylethyl)-1H-pyrazol-5-yl]biphenyl-3-sulfonamide] | 1000 to 10000 |
| Cc1c(C(C)(C)O)nn(-c2ccccc2Cl)c1-c1ccc(-c2cccc(S(C)(=O)=O)c2)s1 [Example 1301, 2-[1-(2-chlorophenyl)-4-methyl-5-{5-[3-(methylsulfonyl)phenyl]-2-thienyl}-1H-pyrazol-3-yl]propan-2-ol] | < 1000 |
| CCS(=O)(=O)c1cccc(-c2ccc(-c3cc(C(C)(C)C(=O)O)nn3-c3ccccc3Cl)s2)c1 [Example 1302, 2-[1-(2-chlorophenyl)-5-{5-[3-(ethylsulfonyl)phenyl]-2-thienyl}-1H-pyrazol-3-yl]-2-methylpropanoic acid] | 1000 to 10000 |
| CC(C)(O)c1ccc(-c2ccc(-c3cc(C(F)(F)F)nn3-c3cc(Cl)ccc3Cl)s2)cc1S(C)(=O)=O [Example 1304, 2-[4-{5-[1-(2,5-dichlorophenyl)-3-(trifluoromethyl)-1H-pyrazol-5-yl]-2-thienyl}-2-(methylsulfonyl)phenyl]propan-2-ol] | < 1000 |
| CC(C)(O)c1cc(-c2ccc(-c3ccc(S(C)(=O)=O)cc3)cc2)n(-c2ccccc2Cl)n1 [Example 1305, 2-{1-(2-chlorophenyl)-5-[4′-(methylsulfonyl)biphenyl-4-yl]-1H-pyrazol-3-yl}propan-2-ol] | 1000 to 10000 |
| CC(C)(O)c1cc(-c2ccc(-c3ccc(S(N)(=O)=O)cc3)cc2)n(-c2ccccc2Cl)n1 [Example 1306, 4′-[1-(2-chlorophenyl)-3-(1-hydroxy-1-methylethyl)-1H-pyrazol-5-yl]biphenyl-4-sulfonamide] | 1000 to 10000 |
| CC(C)(O)c1cccc(-c2ccc(-c3cc(C(C)(C)O)nn3-c3ccccc3Cl)cc2)c1 [Example 1307, 2-{1-(2-chlorophenyl)-5-[3′-(1-hydroxy-1-methylethyl)biphenyl-4-yl]-1H-pyrazol-3-yl}propan-2-ol] | < 1000 |
| CC(C)(O)c1cc(-c2ccc(-c3cc(C(F)(F)F)nn3-c3cc(Cl)ccc3Cl)s2)cc(S(C)(=O)=O)c1 [Example 1308, 2-[3-{5-[1-(2,5-dichlorophenyl)-3-(trifluoromethyl)-1H-pyrazol-5-yl]-2-thienyl}-5-(methylsulfonyl)phenyl]propan-2-ol] | < 1000 |
| CC(C)(O)c1cc(-c2ccc(-c3cccc(NS(C)(=O)=O)c3)cc2)n(-c2ccccc2Cl)n1 [Example 1309, N-{4′-[1-(2-chlorophenyl)-3-(1-hydroxy-1-methylethyl)-1H-pyrazol-5-yl]biphenyl-3-yl}methanesulfonamide] | 1000 to 10000 |

| SMILES | EC50 [nM] |
| --- | --- |
| CC(C)(O)c1cc(-c2ccc(-c3cccc(NS(=O)(=O)C(F)(F)F)c3)cc2)n(-c2ccccc2Cl)n1 [Example 1310, N-{4′-[1-(2-chlorophenyl)-3-(1-hydroxy-1-methylethyl)-1H-pyrazol-5-yl]biphenyl-3-yl}-1,1,1-trifluoromethanesulfonamide] | 1000 to 10000 |
| CC(=O)Nc1cccc(-c2ccc(-c3cc(C(C)(C)O)nn3-c3ccccc3Cl)cc2)c1 [Example 1311, N-{4′-[1-(2-chlorophenyl)-3-(1-hydroxy-1-methylethyl)-1H-pyrazol-5-yl]biphenyl-3-yl}acetamide] | 1000 to 10000 |
| CS(=O)(=O)c1cccc(-c2ccc(-c3c(Br)c(C(F)(F)F)nn3-c3c(Cl)cccc3Cl)s2)c1 [Example 1313, 4-bromo-1-(2,6-dichlorophenyl)-5-{5-[3-(methylsulfonyl)phenyl]-2-thienyl}-3-(trifluoromethyl)-1H-pyrazole] | < 1000 |
| Cc1ccc(C)c(-n2nc(C(C)(C)O)cc2-c2ccc(-c3cccc(S(C)(=O)=O)c3)s2)c1 [Example 1314, 2-[1-(2,5-dimethylphenyl)-5-{5-[3-(methylsulfonyl)phenyl]-2-thienyl}-1H-pyrazol-3-yl]propan-2-ol] | < 1000 |
| CCS(=O)(=O)c1cccc(-c2ccc(-c3cc(C(C)(C)O)nn3-c3ccccc3Cl)s2)c1 [Example 1316, 2-[1-(2-chlorophenyl)-5-{5-[3-(ethylsulfonyl)phenyl]-2-thienyl}-1H-pyrazol-3-yl]propan-2-ol] | 1000 to 10000 |
| CC(C)(O)c1cc(-c2ccc(-c3cc(C(F)(F)F)nn3-c3c(Cl)cccc3Cl)s2)cc(S(C)(=O)=O)c1 [Example 1317, 2-[3-{5-[1-(2,6-dichlorophenyl)-3-(trifluoromethyl)-1H-pyrazol-5-yl]-2-thienyl}-5-(methylsulfonyl)phenyl]propan-2-ol] | < 1000 |
| CC(C)(O)c1cc(-c2ccc(-c3cc(C(F)(F)F)nn3-c3ccccc3Cl)s2)cc(S(C)(=O)=O)c1 [Example 1318, 2-[3-{5-[1-(2-chlorophenyl)-3-(trifluoromethyl)-1H-pyrazol-5-yl]-2-thienyl}-5-(methylsulfonyl)phenyl]propan-2-ol] | < 1000 |
| CC(C)(O)c1nn(-c2ccccc2Cl)c(-c2ccc(-c3cccc(S(C)(=O)=O)c3)s2)c1F [Example 1319, 2-[1-(2-chlorophenyl)-4-fluoro-5-{5-[3-(methylsulfonyl)phenyl]-2-thienyl}-1H-pyrazol-3-yl]propan-2-ol] | < 1000 |
| CC(C)(O)c1cc(-c2ccc(-c3cccc(S(C)(=O)=O)c3)s2)n(-c2ccccc2Br)n1 [Example 1320, 2-[1-(2-bromophenyl)-5-{5-[3-(methylsulfonyl)phenyl]-2-thienyl}-1H-pyrazol-3-yl]propan-2-ol] | < 1000 |
| CC(C)(O)c1cc(-c2ccc(-c3cccc(S(C)(=O)=O)c3)s2)n(-c2cc(F)ccc2F)n1 [Example 1322, 2-[1-(2,5-difluorophenyl)-5-{5-[3-(methylsulfonyl)phenyl]-2-thienyl}-1H-pyrazol-3-yl]propan-2-ol] | 1000 to 10000 |
| CC(C)(O)c1cc(-c2ccc(-c3cccc(S(C)(=O)=O)c3)s2)n(-c2cc(Cl)cc(Cl)c2)n1 [Example 1323, 2-[1-(3,5-dichlorophenyl)-5-{5-[3-(methylsulfonyl)phenyl]-2-thienyl}-1H-pyrazol-3-yl]propan-2-ol] | 1000 to 10000 |
| CC(C)(O)c1cc(-c2ccc(-c3cccc(S(C)(=O)=O)c3)s2)n(-c2ccc(Cl)c(Cl)c2)n1 [Example 1324, 2-[1-(3,4-dichlorophenyl)-5-{5-[3-(methylsulfonyl)phenyl]-2-thienyl}-1H-pyrazol-3-yl]propan-2-ol] | 1000 to 10000 |
| Cc1ccc(Cl)c(-n2nc(C(C)(C)O)cc2-c2ccc(-c3cccc(S(C)(=O)=O)c3)s2)c1Cl [Example 1325, 2-[1-(2,6-dichloro-3-methylphenyl)-5-{5-[3-(methylsulfonyl)phenyl]-2-thienyl}-1H-pyrazol-3-yl]propan-2-ol] | < 1000 |
| CC(C)(O)c1cc(-c2ccc(-c3cccc(S(C)(=O)=O)c3)s2)n(-c2cccc(F)c2F)n1 [Example 1326, 2-[1-(2,3-difluorophenyl)-5-{5-[3-(methylsulfonyl)phenyl]-2-thienyl}-1H-pyrazol-3-yl]propan-2-ol] | < 1000 |
| CC(C)(O)c1cc(-c2ccc(-c3cccc(S(C)(=O)=O)c3)s2)n(-c2ccccc2OC(F)(F)F)n1 [Example 1327, 2-(5-{5-[3-(methylsulfonyl)phenyl]-2-thienyl}-1-(2-[(trifluoromethyl)oxy]phenyl}-1H-pyrazol-3-yl)propan-2-ol] | < 1000 |
| CC(C)(O)c1cc(-c2ccc(-c3cccc(S(C)(=O)=O)c3)s2)n(-c2cccc(Cl)c2F)n1 [Example 1328, 2-[1-(3-chloro-2-fluorophenyl)-5-{5-[3-(methylsulfonyl)phenyl]-2-thienyl}-1H-pyrazol-3-yl]propan-2-ol] | < 1000 |
